Data on 3 compounds can be found in PMC6150239 (Molecules : A Journal of Synthetic Chemistry and Natural …, 2017).

Series [1] can be described thus: Human liver microsome stability assay. It is filed as in vitro ADME. The following applies: human liver microsomes, 1 μM, 37 °C; CLint = k/P. On the technique in general: Liver microsomes are vesicles of endoplasmic reticulum, rich in cytochrome P450 enzymes.
Details of series [2]: method as in PMID 27079428. Particulars: cited from earlier work.

In the case of `C[C@]12CC[C@H]3[C@@H](CCC4=CC(=O)CC[C@@]43C)[C@@H]1CC[C@@H]2O` [Testosterone, testosterone, reference compound], in series [1], the “CLint (intrinsic clearance)” value is given as 0.0727 mL/min/mg Protein.

Regarding `[2H]C([2H])([2H])Oc1cc2c(cc1OC([2H])([2H])[2H])C1CC(=O)C(CC(C)C)CN1CC2` (stereo not drawn) [deutetrabenazine], the t1/2 in series [2] is on record as 8.6 h.

Regarding `COc1cc2c(cc1OC)C1CC(=O)C(CC(C)C)CN1CC2` (stereo not drawn) [tetrabenazine], the t1/2 in series [2] was 4.8 h.
